According to the supplement of paper PMC10883282:

Assays:
Assay in all cases: relative viability vs DMSO control (72 h) (fraction); higher = more viable cells
G401 = tested on: G401
Summary of the method: (§1)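 Relative viability was measured with ATPLite and expressed as percent growth, averaged across up to triplicate wells. Sarcoma cell lines had been seeded in 384-well plates to reach 80–90% confluence, dosed after 24 h, and incubated 72 h at 37 °C, 5% CO2. All data were rescaled on a scale where 1 is full and 0 is none.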

RD-ES = tested on: RD-ES
Summary of the method: as §1

VA-ES-BJ = tested on: VA-ES-BJ
Summary of the method: as §1

RD = tested on: RD
Summary of the method: as §1

SK-ES-1 = tested on: SK-ES-1
Summary of the method: as §1

SK-LMS-1 = tested on: SK-LMS-1
Summary of the method: as §1

MES-SA = tested on: MES-SA
Summary of the method: as §1

KHOS-NP = tested on: KHOS-NP
Summary of the method: as §1

HT1080 = tested on: HT1080
Summary of the method: as §1

SW684 = tested on: SW684
Summary of the method: as §1

SW1353 = tested on: SW1353
Summary of the method: as §1

SW872 = tested on: SW872
Summary of the method: as §1

CC[C@@H]1C(=O)N(C)c2cnc(Nc3ccc(C(=O)N[C@H]4CC[C@H](N5CCN(CC6CC6)CC5)CC4)cc3OC)nc2N1C(C)C [Volasertib]
Details | relative viability
G401, 0.00017 µM | 1.01
G401, 0.00051 µM | 1.03
G401, 0.00152 µM | 1.05
G401, 0.00457 µM | 1.03
G401, 0.01372 µM | 1.02
G401, 0.04115 µM | 0.845
G401, 0.1235 µM | 0.5129
G401, 0.3704 µM | 0.427
G401, 1.111 µM | 0.338
G401, 3.333 µM | 0.243
G401, 10 µM | 0.00683
HT1080, 0.00017 µM | 1.057
HT1080, 0.00051 µM | 1.06
HT1080, 0.00152 µM | 1.06
HT1080, 0.00457 µM | 1.04
HT1080, 0.01372 µM | 1.03
HT1080, 0.04115 µM | 0.9978
HT1080, 0.1235 µM | 0.239
HT1080, 0.3704 µM | 0.13
HT1080, 1.111 µM | 0.139
HT1080, 3.333 µM | 0.0909
HT1080, 10 µM | 0.00783
KHOS-NP, 0.00017 µM | 1.07
KHOS-NP, 0.00051 µM | 1.06
KHOS-NP, 0.00152 µM | 1.07
KHOS-NP, 0.00457 µM | 1.08
KHOS-NP, 0.01372 µM | 1.09
KHOS-NP, 0.04115 µM | 1.01
KHOS-NP, 0.1235 µM | 0.471
KHOS-NP, 0.3704 µM | 0.276
KHOS-NP, 1.111 µM | 0.222
KHOS-NP, 3.333 µM | 0.184
KHOS-NP, 10 µM | 0.0214
MES-SA, 0.00017 µM | 0.938
MES-SA, 0.00051 µM | 0.966
MES-SA, 0.00152 µM | 0.936
MES-SA, 0.00457 µM | 0.932
MES-SA, 0.01372 µM | 0.924
MES-SA, 0.04115 µM | 0.637
MES-SA, 0.1235 µM | 0.173
MES-SA, 0.3704 µM | 0.0889
MES-SA, 1.111 µM | 0.0861
MES-SA, 3.333 µM | 0.072
MES-SA, 10 µM | 0.0076
RD, 0.00017 µM | 1.132
RD, 0.00051 µM | 1.12
RD, 0.00152 µM | 1.129
RD, 0.00457 µM | 1.14
RD, 0.01372 µM | 1.07
RD, 0.04115 µM | 0.363
RD, 0.1235 µM | 0.212
RD, 0.3704 µM | 0.18
RD, 1.111 µM | 0.169
RD, 3.333 µM | 0.119
RD, 10 µM | 0.0206
RD-ES, 0.00017 µM | 1.02
RD-ES, 0.00051 µM | 1
RD-ES, 0.00152 µM | 1.01
RD-ES, 0.00457 µM | 1.028
RD-ES, 0.01372 µM | 0.987
RD-ES, 0.04115 µM | 0.447
RD-ES, 0.1235 µM | 0.0248
RD-ES, 0.3704 µM | 0.0217
RD-ES, 1.111 µM | 0.0279
RD-ES, 3.333 µM | 0.0346
RD-ES, 10 µM | 0.0126
SK-ES-1, 0.00017 µM | 1.09
SK-ES-1, 0.00051 µM | 1.1
SK-ES-1, 0.00152 µM | 1.08
SK-ES-1, 0.00457 µM | 1.1
SK-ES-1, 0.01372 µM | 1.05
SK-ES-1, 0.04115 µM | 0.495
SK-ES-1, 0.1235 µM | 0.0483
SK-ES-1, 0.3704 µM | 0.0522
SK-ES-1, 1.111 µM | 0.0871
SK-ES-1, 3.333 µM | 0.114
SK-ES-1, 10 µM | 0.0116
SK-LMS-1, 0.00017 µM | 1.04
SK-LMS-1, 0.00051 µM | 1.01
SK-LMS-1, 0.00152 µM | 1.05
SK-LMS-1, 0.00457 µM | 1.04
SK-LMS-1, 0.01372 µM | 1
SK-LMS-1, 0.04115 µM | 0.551
SK-LMS-1, 0.1235 µM | 0.492
SK-LMS-1, 0.3704 µM | 0.453
SK-LMS-1, 1.111 µM | 0.459
SK-LMS-1, 3.333 µM | 0.3806
SK-LMS-1, 10 µM | 0.0152
SW684, 0.00017 µM | 1.19
SW684, 0.00051 µM | 1.21
SW684, 0.00152 µM | 1.22
SW684, 0.00457 µM | 1.17
SW684, 0.01372 µM | 1.13
SW684, 0.04115 µM | 0.694
SW684, 0.1235 µM | 0.675
SW684, 0.3704 µM | 0.731
SW684, 1.111 µM | 0.675
SW684, 3.333 µM | 0.6025
SW684, 10 µM | 0.0835
SW872, 0.00017 µM | 1.06
SW872, 0.00051 µM | 1.03
SW872, 0.00152 µM | 1.05
SW872, 0.00457 µM | 1.08
SW872, 0.01372 µM | 1.06
SW872, 0.04115 µM | 0.623
SW872, 0.1235 µM | 0.437
SW872, 0.3704 µM | 0.269
SW872, 1.111 µM | 0.176
SW872, 3.333 µM | 0.0454
SW872, 10 µM | 0.00513
SW1353, 0.00017 µM | 0.972
SW1353, 0.00051 µM | 0.954
SW1353, 0.00152 µM | 0.945
SW1353, 0.00457 µM | 0.949
SW1353, 0.01372 µM | 0.958
SW1353, 0.04115 µM | 0.902
SW1353, 0.1235 µM | 0.635
SW1353, 0.3704 µM | 0.52
SW1353, 1.111 µM | 0.4419
SW1353, 3.333 µM | 0.3712
SW1353, 10 µM | 0.063
VA-ES-BJ, 0.00017 µM | 1.04
VA-ES-BJ, 0.00051 µM | 1.04
VA-ES-BJ, 0.00152 µM | 1.07
VA-ES-BJ, 0.00457 µM | 1.06
VA-ES-BJ, 0.01372 µM | 1.04
VA-ES-BJ, 0.04115 µM | 0.486
VA-ES-BJ, 0.1235 µM | 0.234
VA-ES-BJ, 0.3704 µM | 0.108
VA-ES-BJ, 1.111 µM | 0.0943
VA-ES-BJ, 3.333 µM | 0.074
VA-ES-BJ, 10 µM | -0.00633
